# Test results reported in US9302999B2, “Substituted triazoles as herbicides” (E. I. DU PONT DE NEMOURS AND COMPANY, priority 2012, dated 2016).
# Legend:
# Format in all cases: in vivo
# Settings in all cases: Preemergence
# [1] = tested on: poinsettia, wild (wild poinsettia, Euphorbia heterophylla); assay: Test F pre-/postemergence: poinsettia, wild
# Description: (§1) Seeds of plant species selected from corn (Zea mays), soybean (Glycine max), velvetleaf (Abutilon theophrasti), lambsquarters (Chenopodium album), poinsettia, wild (wild poinsettia, Euphorbia heterophylla), pigweed, palmer (palmer pigweed, Amaranthus palmeri), waterhemp (common waterhemp, Amaranthus rudis), surinam grass (Brachiaria decumbens), crabgrass, Brazil (Brazilian crabgrass, Digitaria horizontalis), panicum, fall (fall panicum Panicum dichotomiflorum), crabgrass, large (large crabgrass, Digitaria sanguinalis), foxtail, giant (giant foxtail, Setaria faberii), foxtail, green (green foxtail Setaria viridis), goosegrass (Eleusine indica), ragweed (common ragweed, Ambrosia elatior), barnyardgrass (Echinochloa crus-galli), sandbur (southern sandbur, Cenchrus echinatus), arrowleaf sida (Sida rhombifolia), ryegrass, Italian (Italian ryegrass, Lolium multiflorum), dayflower, VA (Virginia (VA) dayflower, Commelina virginica), field bindweed (Convolvulus arvensis), cocklebur (common cocklebur, Xanthium strumarium), morningglory (Ipomoea coccinea), nightshade (eastern black nightshade, Solanum ptycanthum), kochia (Kochia scoparia), nutsedge, yellow (yellow nutsedge, Cyperus esculentus), johnsongrass (Sorghum halepense), smartweed (ladysthumb smartweed, Polygonum persicaria), and beggarticks (hairy beggarticks, Bidens pilosa), were planted into a silt loam soil and treated preemergence with test chemicals formulated in a non-phytotoxic solvent mixture which included a surfactant. At the same time, plants selected from these crop and weed species and also pigweed (Amaranthus retroflexus), waterhemp_RES1 (ALS/Triazine resistant common waterhemp, Amaranthus rudis) and waterhemp_RES2 (ALS/HPPD resistant common waterhemp, Amaranthus rudis) were planted in pots containing a planting medium comprising spaghnum peat moss, vermiculite, wetting agent and starter nutrients treated with postemergence applications of some of the test chemicals formulated in the same manner. Plants ranged in height from 2 to 18 cm for postemergence treatments (1- to 4-leaf stage).
# (§2) Treated plants and controls were maintained in a greenhouse for 14 to 21 days, after which time all species were compared to controls and visually evaluated. Plant response ratings, summarized in Table E, are based on a scale of 0 to 100 where 0 is no effect and 100 is complete control. A dash (-) response means no test result.
# [2] = tested on: ragweed (common ragweed, Ambrosia elatior); assay: Test F pre-/postemergence: ragweed
# Description: as §1, §2
# [3] = tested on: morningglory (Ipomoea coccinea); assay: Test F pre-/postemergence: morningglory
# Description: as §1, §2
# kochia (Kochia scoparia) = assay: Test F pre-/postemergence: kochia
# Description: as §1, §2
# [4] = 16 g ai/ha, scale 0 to 100, 0 no effect, 100 complete control
# [5] = 31 g ai/ha, scale 0 to 100, 0 no effect, 100 complete control
Structure (SMILES),"Plant response rating, Poinsettia, Wild [1, 4]","Plant response rating, Poinsettia, Wild [1, 5]","Plant response rating, Poinsettia, Wild ([1]; 125 g ai/ha, scale 0 to 100)","Plant response rating, Poinsettia, Wild ([1]; 250 g ai/ha, scale 0 to 100)","Plant response rating, Ragweed [2, 4]","Plant response rating, Ragweed [2, 5]","Plant response rating, Ragweed ([2]; 125 g ai/ha, scale 0 to 100)","Plant response rating, Ragweed ([2]; 250 g ai/ha, scale 0 to 100)","Plant response rating, Morningglory [3, 4]","Plant response rating, Morningglory [3, 5]","Plant response rating, Morningglory ([3]; 125 g ai/ha, scale 0 to 100)","Plant response rating, Morningglory ([3]; 250 g ai/ha, scale 0 to 100)","Plant response rating, Kochia (kochia (Kochia scoparia); [4])","Plant response rating, Kochia (kochia (Kochia scoparia); [5])","Plant response rating, Kochia (kochia (Kochia scoparia); 62 g ai/ha, scale 0 to 100)","Plant response rating, Kochia (kochia (Kochia scoparia); 125 g ai/ha, scale 0 to 100)","Plant response rating, Kochia (kochia (Kochia scoparia); 250 g ai/ha, scale 0 to 100)"
COc1nn(-c2cccc(F)c2)nc1Cc1ccnc(C(F)(F)F)c1 [Compound 139],0,20,75,80,0,0,0,0,0,0,5,20,0,0,35,90,98
Cc1nn(-c2ccc(F)cc2F)nc1Oc1ccnc(C(F)(F)F)c1 [Compound 146],20,20,40,40,0,0,0,25,0,0,0,25,0,5,30,50,98
CCc1nn(-c2ccc(F)cc2)nc1Cc1ccnc(C(F)(F)F)c1 [Compound 154],0,0,25,85,0,0,0,40,,,,,5,25,85,95,98
